{"source": "patent US10881110B2", "about": "“Herbicidal compositions comprising isoxazolo[5,4-b]pyridines” (BASF SE, priority 2014, dated 2021)", "test_in_all_cases": "greenhouse post-emergence herbicidal test", "key": {"APESV": {"system": "APESV", "assay_type": "in vivo, Apera spica-venti", "design": "key to herbicidal activity against APESV found: rating on a scale from 0 to 100", "details": "post emergence", "description": "(§1) The culture containers used were plastic pots containing medium loamy sand with approximately 4.6% of humus and 69.9% sand as substrate. The seeds of the test plants were sown separately for each species.\n(§2) For the post-emergence treatment, the test plants were grown to a plant height of from 1 to 15 cm, depending on the plant habit, and only then treated with the active compounds which had been suspended or emulsified in water. To this end, the test plants were either sown directly, and grown in the same containers, or they were first grown separately as seedlings and transplanted into the test containers a few days prior to treatment.\n(§3) Depending on the species, the plants were kept at 10-25° C. and 20-35° C., respectively.\n(§4) The test period extended over 1 to 3 weeks. During this time, the plants were tended and their response to the individual treatments was evaluated 20 days after treatment except mentioned otherwise.\n(§5) Evaluation was carried out using a scale from 0 to 100. 100 means no emergence of the plants, or complete destruction of at least the above-ground parts, and 0 means no damage or normal course of growth.\n(§6) The respective stated components A and B, and, if appropriate, C, were formulated as a 10% by weight strength emulsion concentrate and, with addition of the amount of solvent system, introduced into the spray liquor used for applying the active compound. In the examples, the solvent used was water.\n(§7) In the examples below, using the method of S. R. Colby (1967) “Calculating synergistic and antagonistic responses of herbicide combinations”, Weeds 15, p. 22 ff., the value E, which is expected if the activity of the individual active compounds is only additive, was calculated. E=X+Y−(X·Y/100)"}, "GALAP": {"system": "GALAP", "assay_type": "in vivo, Galium aparine", "details": "post emergence; applied alone at 12 g/ha a.i.", "description": "as §1, §2, §3, §4, §5, §6, §7"}, "ERICA": {"system": "ERICA", "assay_type": "in vivo, Conyza canadensis", "details": "post emergence; applied alone at 12 g/ha a.i.", "description": "as §1, §2, §3, §4, §5, §6, §7"}, "POLCO": {"system": "POLCO", "assay_type": "in vivo, Polygonum convolvulus", "design": "key to herbicidal activity against POLCO found: rating on a scale from 0 to 100", "details": "post emergence", "description": "as §1, §2, §3, §4, §5, §6, §7"}, "ABUTH": {"system": "ABUTH", "assay_type": "in vivo, Abutilon theophrast", "design": "key to herbicidal activity against ABUTH found: rating on a scale from 0 to 100", "details": "post emergence", "description": "as §1, §2, §3, §4, §5, §6, §7"}, "ALOMY": {"system": "ALOMY", "assay_type": "in vivo, Alopecurus myosuroides", "design": "key to herbicidal activity against ALOMY found: rating on a scale from 0 to 100", "details": "post emergence", "description": "as §1, §2, §3, §4, §5, §6, §7"}, "IPOHE": {"system": "IPOHE", "assay_type": "in vivo, Ipomoea hederacea", "design": "key to herbicidal activity against IPOHE found: rating on a scale from 0 to 100", "details": "post emergence, g/ha a.i.: I.1 31.25", "description": "as §1, §2, §3, §4, §5, §6, §7"}, "MATCH": {"system": "MATCH", "assay_type": "in vivo, Matricaria recutita", "design": "key to herbicidal activity against MATCH found: rating on a scale from 0 to 100", "details": "post emergence, B.24 2", "description": "as §1, §2, §3, §4, §5, §6, §7"}, "KCHSC": {"system": "KCHSC", "assay_type": "in vivo, Kochia scoparia", "design": "key to herbicidal activity against KCHSC found: rating on a scale from 0 to 100", "details": "post emergence, g/ha a.i.: I.1 31.25", "description": "as §1, §2, §3, §4, §5, §6, §7"}, "PAPRH": {"system": "PAPRH", "assay_type": "in vivo, Papaver rhoeas", "details": "2 g/ha a.i.", "description": "as §1, §2, §3, §4, §5, §6, §7"}, "CONAR": {"system": "CONAR", "assay_type": "in vivo, Convolvulus arvensis", "design": "key: rating on a scale from 0 to 100", "details": "application rate a.i.: I.1 62.5 g/ha, B.30 (imazamox) 3.75 g/ha, alone or as mixture (composition 1.030)", "description": "as §1, §2, §3, §4, §5, §6, §7"}, "GERDI": {"system": "GERDI", "assay_type": "in vivo, Geranium dissectum", "design": "key to herbicidal activity against GERDI found: rating on a scale from 0 to 100", "details": "post emergence; application rate a.i.: I.1 62.5 g/ha, B.30 (imazamox) 3.75 g/ha, alone or as mixture (composition 1.030)", "description": "as §1, §2, §3, §4, §5, §6, §7"}, "VIOAR": {"system": "VIOAR", "assay_type": "in vivo, Viola arvensis", "design": "key to herbicidal activity against VIOAR found / herbicidal activity against VIOLA found: rating on a scale from 0 to 100", "details": "post emergence; application rate a.i.: I.1 62.5 g/ha, B.30 (imazamox) 3.75 g/ha, alone or as mixture (composition 1.030)", "description": "as §1, §2, §3, §4, §5, §6, §7"}, "[1]": {"details": "g/ha a.i.: I.1 62.5, B.20 4, mixture 62.5+4"}}, "data": [{"smiles": "CCSC(C)CC1CC(=O)C(/C(CC)=N/OC/C=C/Cl)=C(O)C1", "note": "(stereo not drawn) [B.1, clethodim]", "values": [{"measurement": "herbicidal activity against APESV found", "setting": "APESV; applied alone at 6 g/ha a.i.", "result": 75}, {"measurement": "herbicidal activity against GALAP found", "setting": "GALAP", "result": 0}, {"measurement": "herbicidal activity against ERICA found", "setting": "ERICA", "result": 0}, {"measurement": "herbicidal activity against POLCO found", "setting": "POLCO; applied alone at 6 g/ha a.i.", "result": 0}, {"measurement": "herbicidal activity against ABUTH found", "setting": "ABUTH; applied alone at 6 g/ha a.i.", "result": 0}, {"measurement": "herbicidal activity against ABUTH found", "setting": "ABUTH; applied alone at 12 g/ha a.i.", "result": 25}]}, {"smiles": "CCCC(=NOCC(C)Oc1ccc(Cl)cc1)C1=C(O)CC(C2CCCSC2)CC1=O", "note": "(stereo not drawn) [B.9, profoxydim]", "values": [{"measurement": "herbicidal activity against APESV found", "setting": "APESV; applied alone at 6 g/ha a.i.", "result": 15}, {"measurement": "herbicidal activity against APESV found", "setting": "APESV; applied alone at 12 g/ha a.i.", "result": 55}, {"measurement": "herbicidal activity against POLCO found", "setting": "POLCO; applied alone at 12 g/ha a.i.", "result": 0}, {"measurement": "herbicidal activity against ALOMY found", "setting": "ALOMY; applied alone at 12 g/ha a.i.", "result": 25}, {"measurement": "herbicidal activity against ABUTH found", "setting": "ABUTH; applied alone at 6 g/ha a.i.", "result": 0}, {"measurement": "herbicidal activity against ABUTH found", "setting": "ABUTH; applied alone at 12 g/ha a.i.", "result": 40}]}, {"smiles": "COc1cc(OC)nc(Oc2cccc(Oc3nc(OC)cc(OC)n3)c2C(=O)O)n1", "note": "[B.20, bispyribac-sodium]", "values": [{"measurement": "herbicidal activity against APESV found", "setting": "APESV; [1]", "result": 60}, {"measurement": "herbicidal activity against IPOHE found", "setting": "IPOHE; B.20 2, mixture 31.25+2", "result": 30}, {"measurement": "herbicidal activity against ALOMY found", "setting": "ALOMY; [1]", "result": 55}, {"measurement": "herbicidal activity against ALOMY found", "setting": "ALOMY; g/ha a.i.: I.1 125, B.20 2, mixture 125+2", "result": 30}, {"measurement": "herbicidal activity against ALOMY found", "setting": "ALOMY; g/ha a.i.: I.1 125, B.20 4, mixture 125+4", "result": 55}, {"measurement": "herbicidal activity against ABUTH found", "setting": "ABUTH; g/ha a.i.: I.1 31.25, B.20 2, mixture 31.25+2", "result": 35}, {"measurement": "herbicidal activity against ABUTH found", "setting": "ABUTH; g/ha a.i.: I.1 31.25, B.20 4, mixture 31.25+4", "result": 65}]}, {"smiles": "COc1cc(OC)nc(NC(=O)NS(=O)(=O)Nc2ccccc2C(=O)C2CC2)n1", "note": "[B.24, cyclosulfamuron]", "values": [{"measurement": "herbicidal activity against APESV found", "setting": "APESV; g/ha a.i.: I.1 31.25, B.24 1, mixture 31.25+1", "result": 0}, {"measurement": "herbicidal activity against MATCH found", "setting": "MATCH; g/ha a.i.: I.1 31.25, mixture 31.25+2", "result": 65}, {"measurement": "herbicidal activity against MATCH found", "setting": "MATCH; g/ha a.i.: I.1 125, mixture 125+2", "result": 65}, {"measurement": "herbicidal activity against KCHSC found", "setting": "KCHSC; B.24 1, mixture 31.25+1", "result": 45}, {"measurement": "herbicidal activity against KCHSC found", "setting": "KCHSC; B.24 2, mixture 31.25+2", "result": 45}, {"measurement": "herbicidal activity against IPOHE found", "setting": "IPOHE; B.24 1, mixture 31.25+1", "result": 75}, {"measurement": "herbicidal activity against ALOMY found", "setting": "ALOMY; g/ha a.i.: I.1 125, B.24 1, mixture 125+1", "result": 25}, {"measurement": "herbicidal activity against ALOMY found", "setting": "ALOMY; g/ha a.i.: I.1 125, B.24 2, mixture 125+2", "result": 35}, {"measurement": "herbicidal activity against ABUTH found", "setting": "ABUTH; g/ha a.i.: I.1 31.25, B.24 2, mixture 31.25+2", "result": 85}]}, {"smiles": "COc1ncc(F)c2nc(S(=O)(=O)Nc3c(F)cccc3F)nn12", "note": "[B.26, florasulam]", "values": [{"measurement": "herbicidal activity against POLCO found", "setting": "POLCO; 2 g/ha a.i.", "result": 85}, {"measurement": "herbicidal activity against PAPRH found", "setting": "PAPRH", "result": 98}]}, {"smiles": "COCc1cnc(C2=NC(C)(C(C)C)C(=O)N2)c(C(=O)O)c1", "note": "(stereo not drawn) [B.30, imazamox]", "values": [{"measurement": "herbicidal activity against CONAR found", "setting": "CONAR", "result": 85}, {"measurement": "herbicidal activity against GERDI found", "setting": "GERDI", "result": 90}, {"measurement": "herbicidal activity against VIOAR found", "setting": "VIOAR", "result": 45}]}]}
